# Experiments:
# [1] = Pharmacokinetic study: blood plasma levels over 12 hours after administration of oxymorphone; type: in vivo
# Description: (§1) In separate studies, blood plasma levels and indications of pain relief were recorded over a 12 hour period. FIGS. 1-4 show graphical representation of the data combining the two studies such that the effect of blood plasma levels on pain can be evaluated.
# After this time, oxymorphone levels again drop and eventually fall to levels near the earlier plateau.
# [2] = target: T1, Opiate, Mu (Human Recombinant) (Homo sapiens, UniProt P35372); assay: Opiate Mu receptor binding assay
# T1 construct: expressed in transfected cells
# [3] = target: T2, Opiate, Delta 2 (Human Recombinant) (Homo sapiens, UniProt P41143); assay: Opiate Delta 2 receptor binding assay
# T2 construct: expressed in transfected cells
# [4] = target: T3, Opiate, Kappa (Human Recombinant) (Homo sapiens, UniProt P41145); assay: Opiate Kappa receptor binding assay
# T3 construct: expressed in transfected cells
# [5] = test system: pain; assay: Pain relief (PID / categorical pain scores) compared with blood plasma levels; type: in vivo; conditions: based on the pharmacokinetic studies
# Description: as §1
# The amount administered will be dependent upon normal criteria such as patient weight, intensity of pain, and other factors. Based on the pharmacokinetic studies blood plasma levels around at least 0.05 ng/mL will provide some analgesia. The upper plasma level limit will be ultimately established by safety concerns. […] Subsequent doses may be required to maintain these blood levels.
# [6] = test system: Opiate, Delta 1; assay: Opiate Delta 1 receptor binding assay
# T3 sequence (P41145 whole entry): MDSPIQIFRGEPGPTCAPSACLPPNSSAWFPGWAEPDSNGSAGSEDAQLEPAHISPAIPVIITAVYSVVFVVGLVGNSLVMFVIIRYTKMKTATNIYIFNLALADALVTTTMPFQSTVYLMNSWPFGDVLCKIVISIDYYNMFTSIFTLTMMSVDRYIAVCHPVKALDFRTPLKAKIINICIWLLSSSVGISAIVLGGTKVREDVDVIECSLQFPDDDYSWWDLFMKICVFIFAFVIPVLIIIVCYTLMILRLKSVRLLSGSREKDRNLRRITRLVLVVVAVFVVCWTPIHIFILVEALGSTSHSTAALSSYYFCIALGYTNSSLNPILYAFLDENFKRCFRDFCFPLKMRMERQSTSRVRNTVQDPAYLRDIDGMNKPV
# T2 sequence (P41143 whole entry): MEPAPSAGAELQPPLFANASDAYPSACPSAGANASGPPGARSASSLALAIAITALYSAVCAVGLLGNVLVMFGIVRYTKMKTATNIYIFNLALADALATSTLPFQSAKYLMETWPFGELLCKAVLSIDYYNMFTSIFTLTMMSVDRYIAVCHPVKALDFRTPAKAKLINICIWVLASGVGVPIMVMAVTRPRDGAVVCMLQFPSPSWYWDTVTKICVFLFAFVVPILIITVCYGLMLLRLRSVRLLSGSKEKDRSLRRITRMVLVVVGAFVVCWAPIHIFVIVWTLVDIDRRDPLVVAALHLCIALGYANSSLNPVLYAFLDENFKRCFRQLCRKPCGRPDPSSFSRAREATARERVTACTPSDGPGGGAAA
# T1 sequence (P35372 whole entry): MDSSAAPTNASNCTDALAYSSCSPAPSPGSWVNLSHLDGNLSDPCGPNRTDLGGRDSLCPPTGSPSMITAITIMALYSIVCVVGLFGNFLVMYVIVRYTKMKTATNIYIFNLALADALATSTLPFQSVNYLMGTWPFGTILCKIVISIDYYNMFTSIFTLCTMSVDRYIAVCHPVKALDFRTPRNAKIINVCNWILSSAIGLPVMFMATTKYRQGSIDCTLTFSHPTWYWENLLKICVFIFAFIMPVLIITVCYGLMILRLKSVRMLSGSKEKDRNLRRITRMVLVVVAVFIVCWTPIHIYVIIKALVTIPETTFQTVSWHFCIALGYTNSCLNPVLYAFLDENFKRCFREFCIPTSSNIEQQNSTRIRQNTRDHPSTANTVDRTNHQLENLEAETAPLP
Structure (SMILES),time of peak blood plasma level ([1]; after administration of oxymorphone),"binding, Opiate Mu (Human Recombinant) ([2]; 10 nm (1.0 E−8))","binding, Opiate Mu (Human Recombinant) ([2]; 10 μm (1.0 E−5))","binding, Opiate Delta 2 (Human Recombinant) ([3]; 10 nm (1.0 E−8))","binding, Opiate Delta 2 (Human Recombinant) ([3]; 10 μm (1.0 E−5))","binding, Opiate Kappa (Human Recombinant) ([4]; 10 nm (1.0 E−8))","binding, Opiate Kappa (Human Recombinant) ([4]; 10 μm (1.0 E−5))",blood plasma level that will provide some analgesia [5],"binding, Opiate Delta 1 ([6]; 10 nm (1.0 E−8))","binding, Opiate Delta 1 ([6]; 10 μm (1.0 E−5))",time of second spike of blood plasma level ([1]; from administration of oxymorphone)
CN1CC[C@]23c4c5ccc(O)c4O[C@H]2C(O)CC[C@@]3(O)[C@H]1C5 (stereo partly shown) [6-hydroxy oxymorphone],≤ 2 h,63.16%,99.91%,7.19%,55.45%,2.45%,62.47%,at least 0.05 ng/mL,−4.12%,90.48%,
CN1CC[C@]23c4c5ccc(O)c4O[C@H]2C(=O)CC[C@@]3(O)[C@H]1C5 [oxymorphone],,,,,,,,,−18.26%,89.03%,4 to 6 h

# Source: patent US20040214849A1, “Parenteral administration of 6-hydroxy-oxymorphone for use as an analgesic” (priority 2001, published 2004)
